“Also recorded” adds a separate entry of the source.
Columns and labels:
MEWO = assay: Clonogenic assay with 1.15.1-AE; type: cell-based, human
Description: (§1) Melanoma cell lines were plated onto flat bottom 96-well tissue culture plates (Becton Dickinson, Franklin Lakes, N.J., USA). On day 2 or when cells reach ˜25% confluency, various concentrations of unconjugated and Auristatin E-conjugated 1.15.1 were added to cells. MAb 2.6.2-AE was also used as a conjugated isotype control in this study. On day 5, the cells were trypsinized, transferred to 6-well tissue culture plates and incubated at 37° C. Plates were examined daily. On days 8-10, all plates were Giemsa stained and colonies on the plates were counted.

WM-266-4 = assay: Clonogenic assay with 1.15.1-AE; type: cell-based, human
Description: as §1

SK-Mel 2 = assay: Clonogenic assay with 1.15.1-AE; type: cell-based, human
Description: as §1

A2058 = assay: Clonogenic assay with 1.15.1-AE; type: cell-based, human
Description: as §1

M14 = assay: Clonogenic assay with 1.15.1-AE; type: cell-based, human
Description: as §1

UACC-62 = assay: Clonogenic assay with 1.15.1-AE; type: cell-based, human
Description: as §1

RPMI-7951 = assay: Clonogenic assay with 1.15.1-AE; type: cell-based, human
Description: as §1

HT144 = assay: Clonogenic assay with 1.15.1-AE; type: cell-based, human
Description: as §1

G361 = assay: Clonogenic assay with 1.15.1-AE; type: cell-based, human
Description: as §1

UACC-257 = assay: Clonogenic assay with 1.15.1-AE; type: cell-based, human
Description: as §1

SK-Mel 5 = assay: Clonogenic assay with 1.15.1-AE; type: cell-based, human
Description: as §1

HEMNLP = assay: Clonogenic assay with 1.15.1-AE; type: cell-based, human
Description: as §1

LOXIMVI = assay: Clonogenic assay with 1.15.1-AE; type: cell-based, human
Description: as §1

SF-539 = assay: Clonogenic assay, CR011-vcMMAE in vitro growth inhibition; type: cell-based, human
Description: (§2) Cells were plated in 96-well plates and allowed to recover overnight. […] The cells were then transferred into 6-well plates and allowed to form colonies. Colonies were stained with Giemsa stain (Sigma) and counted. The surviving cell fractions were calculated based upon the ratio of the treated sample and the untreated control. The results were expressed as a percentage of control using GraphPad Prism Version 4 software.

U-118-MG = assay: as above; type: cell-based, human
Description: as §2

SNB-78 = assay: as above; type: cell-based, human
Description: as §2

XF-498 = assay: as above; type: cell-based, human
Description: as §2

[1] = test system: KG-1 (acute myelogenous leukemia); assay: Clonogenic assay with 1.15.1-AE (methylcellulose); type: cell-based
Description: Lymphoma or leukemia cell lines were mixed with methylcellulose base media (R&D Systems, USA) and in various concentrations of unconjugated and Auristatin E-conjugated 1.15.1 antibody before plating onto 6-well tissue culture plates (Becton Dickinson, Franklin Lakes, N.J., USA). […] Plates were incubated at 37° C. and examined daily. On days 14-18, colonies on the plates were counted.

HEK293 cells = assay: Clonogenic assay, empty vector or GPNMB transfected cells; type: cell-based, human; settings: 96 hours treatment
Description: HEK293 cells are transfected with empty vector (vector) or GPNMB-containing plasmid (GPNMB) as described in Materials and Methods. A. Cell lysates are prepared from the transfected HEK293 cells and the expression of GPNMB (upper panel) or actin (lower panel) is determined by immunoblotting. Lane 1: Empty vector transfectants. Lane 2: GPNMB transfectants. B. Flow cytometry analysis of GPNMB expression on empty vector or GPNMB transfected cells. C. […] After a clonogenic assay, the surviving fraction is normalized to the untreated control and expressed as a percentage of the control using GraphPad Prism graphing software. Each treatment is performed in triplicate. A representative graph from two independent experiments is shown.
as §2

[2] = test system: SK-MEL-2 melanoma xenografts; assay: Human SK-MEL-2 melanoma xenograft in athymic mice; type: in vivo
Description: Test Animals: Five- to 6-week old athymic mice (CD-1 nu/nu females), used for human tumor xenografts, were obtained from Harlan Laboratories (Indianapolis, Ind.). Animals were housed in specific pathogen-free conditions, according to the guidelines of the Association for Assessment and Accreditation of Laboratory Animal Care International (AAALAC International). Test animals were provided pelleted food and water ad libitum and kept in a room with conditioned ventilation (HVAC), temperature (22°±2° C.), relative humidity (55%±15%), and photoperiod (12 hr). All studies were carried out with approved institutional animal care and use protocols.
Human Melanoma Xenograft Models. The tumor inhibitory activity of the CR011-MMAE immunoconjugate was measured in an anti-tumor xenograft model using athymic mice, according to published methods (see Geran et al., Cancer Chemother. Rep. 3:1-104 (1972)). […] When tumors became established (10-20 days), the animals were pair-matched into groups (n=6 mice/group), and treatment was administered by intravenous injection (tail vein).
The SK-MEL-2 human melanoma (ATCC #HTB-68) was derived from a metastatic site (skin of thigh) of a person with malignant melanoma, and the SK-MEL-5 human melanoma (ATCC #HTB-70) was derived from a metastatic site (axillary lymph node) of a person with malignant melanoma (see Fogh et al., J. Natl. Cancer Inst. 59: 221-226 (1977)). Both cell lines were obtained from the American Type Culture Collection.
The effects of treatment were monitored by repetitive tumor measurements across 2 diameters with Vernier calipers; tumor size (in mg) was calculated using a standard formula, (W^2×L)/2, assuming a specific gravity of 1.0. Tumor size and body weights were assessed twice weekly. Mice were examined daily, however, and moribund animals were humanely euthanized if clinical indications of excessive pain or distress were noted (i.e., prostration, hunched posture, paralysis/paresis, distended abdomen, ulcerations, abscesses, seizures, and/or hemorrhages). Animals with tumors exceeding 2,000 mg were removed from the study and euthanized humanely.
No apparent or statistically significant anti-tumor effects were observed. […] In preliminary studies, tumor regression was complete and was not followed by regrowth of the tumor despite lengthy observation periods (up to 200 days).

## CR011-vcMMAE: anti-GPNMB antibody 1.15.1 coupled to monomethylauristatin E via protease-sensitive valine-citrulline linker
MEWO
  Clonogenic Assay with 1.15.1-AE IC50: Inconclusive
WM-266-4
  Clonogenic Assay with 1.15.1-AE IC50: 0.345 µg/mL
  IC50: 2.3 nM
SK-Mel 2
  Clonogenic Assay with 1.15.1-AE IC50: 0.111 µg/mL
  IC50: 0.75 nM
A2058
  Clonogenic Assay with 1.15.1-AE IC50: No effect
M14
  Clonogenic Assay with 1.15.1-AE IC50: Inconclusive
UACC-62
  Clonogenic Assay with 1.15.1-AE IC50: 0.697 µg/mL
  IC50: 4.3 nM
RPMI-7951
  Clonogenic Assay with 1.15.1-AE IC50: 0.972 µg/mL
  IC50: 6 nM
HT144
  Clonogenic Assay with 1.15.1-AE IC50: Inconclusive
G361
  Clonogenic Assay with 1.15.1-AE IC50: 1.053 µg/mL
  IC50: 6.5 nM
UACC-257
  Clonogenic Assay with 1.15.1-AE IC50: 0.825 µg/mL
  IC50: 5.5 nM
SK-Mel 5
  Clonogenic Assay with 1.15.1-AE IC50: 0.237 µg/mL
  IC50: 1.6 nM
HEMNLP
  Clonogenic Assay with 1.15.1-AE IC50: Inconclusive
LOXIMVI
  Clonogenic Assay with 1.15.1-AE IC50: No effect
SF-539
  IC50: ~1.05 µg/mL
U-118-MG
  IC50: ~1.25 µg/mL
SNB-78
  IC50: ~0.45 µg/mL
XF-498
  IC50: approximately 215 ng/mL
[1]
  Clonogenic Assay with 1.15.1-AE IC50: No growth
HEK293 cells
  sensitivity to growth-inhibition, GPNMB-expressing vs control HEK293 cells: more sensitive
[2]; 2 mg/kg cumulative dose, all dosing intervals
  complete regressors: 13%
[2]; 8 mg/kg cumulative dose, 5 groups of 6 animals
  proportions of complete regressions (animals): 28/30
[2]; 8 mg/kg cumulative dose, all dosing intervals
  complete regressions: 93%
[2]; CR011-ONC-1, CR011-vcMMAE 5 mg/kg/treatment i.v. q4d x4, components at doses identical to those in the immunoconjugate
  tumor response: Tumor growth inhibition and complete regression; also recorded: no discernible tumor was detected in all 6 of the test animals
[2]; Study N-386
  abnormal treatment effects on gross examination: no abnormal treatment effects
[2]; Study N-386, 20, 10, 5 or 2.5 mg/kg i.v. q4d x4, P≦0.014
  time after treatment commenced to significant treatment effects: 4 days
[2]; Study N-386, i.v., CR011-vcMMAE 20, 10, 5 or 2.5 mg/kg q4d x4, vinblastine […] q4d x4
  anti-tumor effect: tumors rapidly diminished in size for the majority of the test animals
[2]; Study N-386, twice weekly body weight
  effects of treatment on body weight or weight gain: no observable or statistically significant effects
[2]; cumulative dose of 32 mg/kg, all dosing intervals
  complete regressions: 100%
[2]; dosing intervals 0, 1, 4, 8, 16 days
  schedule dependency of anti-tumor effects: not schedule-dependent
[2]; observation period >200 days
  re-growth of tumors that regressed completely: did not re-grow

— patent publication US8846873B2, “Antibodies directed to GPNMB and uses thereof” (Celldex Therapeutics, Inc., priority 2004, dated 2014)
